Measured values taken from patent US20060084627A1, “Synergistic interaction of abacavir and alovudine” (Medivir AB, priority 2002, published 2006).

What was measured:
multiresistant HIV = details: patients, alovudine 7.5 mg qd add-on for four weeks
Method: A phase IIa trial was performed with 15 patients failing their current NRTI-containing regimens. Each patient had HIV RNA>1000 cp/ml, with at least 2 mutations in the viral RT induced by previous viral therapy, as established by genotypic assay.
The patents were administered qd 7.5 mg alovudine in a conventional carrier in addition to their current regimen for four weeks. The current regimes included various permutations of 3-5 HIV antivirals selected from 3TC, ddI, D4T, nevirapine, DMP, ritonavir, kaletra, saquinavir, amprenavir and indinavir, administered in their conventional dosage forms and regimens. Antiviral load evaluation was performed weekly and then four weeks after discontinuation of alovudine.
As this clinical trial was performed as an add-on therapy to the patients pre-existing regime, it will be appreciated that the alovudine qd was administered in a separate dosage form to the abacavir (typically bd) and other antvirals (typically administered […]).

HIV-1, IIIb = assay: microbe, parasite or virus in culture; assay type: cell-based; details: Human immunodeficiency virus 1, IIIB, MT4; alovudine alone at 0.003 uM, FIG. 3
Method: The antiviral effects of MIV-310 in combination with other NRTIs on HIV-1 replication in MT4 cells were examined by the median effect method (Chao and Talalay 1983). The assay was performed in microtiter plates with each well containing 10^5 cells and 20-50 tissue culture infective doses of HIV-1, IIIb. Each drug alone and a mixture of the drugs in a constant ratio were serially diluted in 2-fold steps and added to the wells in quadruplicates. The constant ratio is selected to reflect the relative potency of the drugs. […] The anti-viral effect was measured day 5 using the XTT calorimetric method.
A combination index (CI) less than 1 indicates synergism, CI equal to zero indicates addition and a CI greater than 1 indicates antagonism. Once again, the combinations have been tested at molar ratios reflecting their relative ED50s in cell culture.

Q: Which serious adverse events (multiresistant HIV) does the source give for Cc1cn([C@H]2C[C@H](F)[C@@H](CO)O2)c(=O)[nH]c1=O [alovudine, 3′-deoxy-3′-fluorothymidine] here?
A: no serious adverse events

Q: What about the tolerability (multiresistant HIV) of the same compound?
A: generally well tolerated

Q: What about the “transient mean increase in CD4 counts” value (multiresistant HIV) of the same compound?
A: +52 counts/mm^3

Q: And the inhibition at 0.003 µM (HIV-1, IIIb)?
A: 27%
